Laboratory results: patent US12060347B2 (BRISTOL-MYERS SQUIBB COMPANY, priority 2016, dated 2024)

These molecules were tested against T1, human PAR4 (Homo sapiens, UniProt Q96RI0) (assay: PAR4 FLIPR assay: antagonism of agonist-peptide-induced calcium mobilization in PAR4-expressing HEK293 cells). Details: H-Ala-Phe(4-F)-[…]NH2-induced intracellular calcium mobilization, 11-point curves.
T1 construct: expressed in transfected cells; host or cells: HEK293 PAR4 Clone 1.2A (BMS Arctic ID 383940)
T1 sequence (Q96RI0 18-385): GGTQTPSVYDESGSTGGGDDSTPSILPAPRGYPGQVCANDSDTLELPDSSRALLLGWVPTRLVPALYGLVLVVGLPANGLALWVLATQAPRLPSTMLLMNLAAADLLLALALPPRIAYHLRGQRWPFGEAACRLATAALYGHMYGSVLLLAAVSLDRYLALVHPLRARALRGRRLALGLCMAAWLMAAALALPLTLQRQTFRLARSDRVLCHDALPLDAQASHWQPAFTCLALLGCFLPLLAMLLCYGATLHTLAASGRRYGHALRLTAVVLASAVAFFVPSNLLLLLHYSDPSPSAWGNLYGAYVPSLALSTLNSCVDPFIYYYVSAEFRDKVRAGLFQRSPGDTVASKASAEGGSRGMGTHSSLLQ
Assay type: cell-based

For `Cc1cnc2c(-c3nc4c(C)cc(OCCNS(=O)(=O)c5ccc(F)cc5)cc4s3)cc(F)cc2n1` [Example 247, 4-fluoro-N-(2-((2-(7-fluoro-2-methylquinoxalin-5-yl)-4-methylbenzo[d]thiazol-6-yl)oxy)ethyl)benzenesulfonamide], which IC50 is on record?
The IC50 was 19 nM.

How did the IC50 turn out when `COc1cnc2c(-c3nc4cc(F)c(OC(C)C)cc4s3)cc(CO)cc2n1` [Example 248, (8-(5-fluoro-6-isopropoxybenzo[d]thiazol-2-yl)-3-methoxyquinoxalin-6-yl)methanol] was run?
Its IC50 is 19 nM.

With `COc1cnc2c(-c3nc4c(C)cc(OCCNS(=O)(=O)c5cccnc5)cc4s3)cc(Cl)cc2n1` [Example 249, N-(2-((2-(7-chloro-2-methoxyquinoxalin-5-yl)-4-methylbenzo[d]thiazol-6-yl)oxy)ethyl)pyridine-3-sulfonamide] as the molecule, how does the IC50 read?
The IC50 was 6.9 nM.

Which IC50 does the source give for `CCOC(=O)COc1cc(C)c2nc(-c3cc(Cl)cc4nc(OC)cnc34)sc2c1` [Example 250, Ethyl 2-((2-(7-chloro-2-methoxyquinoxalin-5-yl)-4-methylbenzo[d]thiazol-6-yl)oxy) acetate] here?
Its IC50 is 31 nM.

`COc1cnc2c(-c3nc4c(C)cc(OCC(=O)O)cc4s3)cc(Cl)cc2n1` [Example 251, 2-((2-(7-chloro-2-methoxyquinoxalin-5-yl)-4-methylbenzo[d]thiazol-6-yl)oxy)acetic acid] was tested. Which IC50 did it give?
The IC50 was 17 nM.

For `COc1ccc(NC(=O)OCCOc2cc(C)c3nc(-c4cc(CO)cc5nc(OC)cnc45)sc3c2)cn1` [Example 252, 2-((2-(7-(hydroxymethyl)-2-methoxyquinoxalin-5-yl)-4-methylbenzo[d]thiazol-6-yl)oxy)ethyl (6-methoxypyridin-3-yl)carbamate], which IC50 is on record?
The IC50 was 0.5 nM.

How did the IC50 turn out when `COCc1cnc2c(-c3nc4ccc(OC)cc4s3)cc(C)cc2n1` [Example 253, 6-methoxy-2-(2-(methoxymethyl)-7-methylquinoxalin-5yl)benzo[d]thiazole] was run?
The IC50 was 0.6 nM.

Which IC50 does the source give for `COCc1cnc2c(-c3nc4c(F)cc(OC)cc4s3)cc(C)cc2n1` [Example 254, 4-fluoro-6-methoxy-2-(2-(methoxymethyl)-7-methylquinoxalin-5-yl)benzo[d]thiazole] here?
Its IC50 is 1.5 nM.

With `CCOc1ccc2nc(-c3cc(C)cc4nc(COC)cnc34)sc2c1` [Example 255, 6-ethoxy-2-(2-(methoxymethyl)-7-methylquinoxalin-5-yl)benzo[d]thiazole] as the molecule, how does the IC50 read?
Its IC50 is 0.8 nM.

How did the IC50 turn out when `COCc1cnc2c(-c3nc4ccccc4s3)cc(C)cc2n1` [Example 256, 2-(2-(methoxymethyl)-7-methylquinoxalin-5-yl)benzo[d]thiazole] was run?
Its IC50 is 1.2 nM.

Which IC50 does the source give for `COCc1cnc2c(-c3nc4c(F)cc(F)cc4s3)cc(C)cc2n1` [Example 257, 4,6-difluoro-2-(2-(methoxymethyl)-7-methylquinoxalin-5-yl)benzo[d]thiazole] here?
The IC50 was 2.1 nM.

How did the IC50 turn out when `COCc1cnc2c(-c3nc4c(OC)cc(OC)cc4s3)cc(C)cc2n1` [Example 258, 4,6-dimethoxy-2-(2-(methoxymethyl)-7-methylquinoxalin-5-yl)benzo[d]thiazole] was run?
The IC50 was 2.8 nM.

How did the IC50 turn out when `COCc1cnc2c(-c3nc4c(OC)cccc4s3)cc(C)cc2n1` [Example 259, 4-methoxy-2-(2-(methoxymethyl)-7-methylquinoxalin-5-yl)benzo[d]thiazole] was run?
The IC50 was 14 nM.

How did the IC50 turn out when `COCc1cnc2c(-c3nc4c(Cl)cccc4s3)cc(C)cc2n1` [Example 260, 4-chloro-2-(2-(methoxymethyl)-7-methylquinoxalin-5-yl)benzo[d]thiazole] was run?
The IC50 was 4.8 nM.

`COCc1cnc2c(-c3nc4c(C)cccc4s3)cc(C)cc2n1` [Example 261, 2-(2-(methoxymethyl)-7-methylquinoxalin-5-yl)-4-methylbenzo[d]thiazole] was tested. Which IC50 did it give?
Its IC50 is 1.2 nM.

`COCc1cnc2c(-c3nc4c(C)cc(OC(F)(F)F)cc4s3)cc(C)cc2n1` [Example 262, 2-(2-(methoxymethyl)-7-methylquinoxalin-5-yl)-4-methyl-6-(trifluoromethoxy)benzo[d]thiazole] was tested. Which IC50 did it give?
The IC50 was 0.8 nM.

With `COCc1cnc2c(-c3nc4c(C)cc(OC(F)F)cc4s3)cc(C)cc2n1` [Example 263, 6-(difluoromethoxy)-2-(2-(methoxymethyl)-7-methylquinoxalin-5-yl)-4-methylbenzo[d]thiazole] as the molecule, how does the IC50 read?
Its IC50 is 0.8 nM.

Which IC50 does the source give for `COCc1cnc2c(-c3nc4ccc(C(=O)OC)cc4s3)cc(C)cc2n1` [Example 264] here?
Its IC50 is 8.3 nM.

How did the IC50 turn out when `COCc1cnc2c(-c3nc4c(Cl)cc(OC)c(F)c4s3)cc(C)cc2n1` [Example 265, 4-chloro-7-fluoro-6-methoxy-2-(2-(methoxymethyl)-7-methylquinoxalin-5-yl)benzo[d]thiazole] was run?
The IC50 was 6.8 nM.

How did the IC50 turn out when `COCc1cnc2c(-c3nc4c(Cl)cc(F)cc4s3)cc(C)cc2n1` [Example 266, 4-chloro-6-fluoro-2-(2-(methoxymethyl)-7-methylquinoxalin-5-yl)benzo[d]thiazole] was run?
Its IC50 is 2.2 nM.

`COCc1cnc2c(-c3nc4c(F)c(F)c(OC)cc4s3)cc(C)cc2n1` [Example 267, 4,5-difluoro-6-methoxy-2-(2-(methoxymethyl)-7-methylquinoxalin-5-yl)benzo[d]thiazole] was tested. Which IC50 did it give?
Its IC50 is 0.8 nM.

How did the IC50 turn out when `COCc1cnc2c(-c3nc4cc(Cl)c(OC)cc4s3)cc(C)cc2n1` [Example 268, 5-chloro-6-methoxy-2-(2-(methoxymethyl)-7-methylquinoxalin-5-yl)benzo[d]thiazole] was run?
Its IC50 is 0.9 nM.

For `COCc1cnc2c(-c3nc4c(OC)c(F)c(F)cc4s3)cc(C)cc2n1` [Example 269, 5,6-difluoro-4-methoxy-2-(2-(methoxymethyl)-7-methylquinoxalin-5-yl)benzo [d]thiazole], which IC50 is on record?
Its IC50 is 3.6 nM.

How did the IC50 turn out when `COCc1cnc2c(-c3nc4c(OC)cc(F)cc4s3)cc(C)cc2n1` [Example 270, 6-fluoro-4-methoxy-2-(2-(methoxymethyl)-7-methylquinoxalin-5-yl)benzo[d]thiazole] was run?
The IC50 was 17 nM.

For `COCc1cnc2c(-c3nc4c(OC)c(F)c(OC)cc4s3)cc(C)cc2n1` [Example 271, 5-fluoro-4,6-dimethoxy-2-(2-(methoxymethyl)-7-methylquinoxalin-5-yl)benzo[d]thiazole], which IC50 is on record?
Its IC50 is 1.5 nM.

For `COCc1cnc2c(-c3nc4ccc(F)cc4s3)cc(C)cc2n1` [Example 272, 6-fluoro-2-(2-(methoxymethyl)-7-methylquinoxalin-5-yl)benzo[d]thiazole], which IC50 is on record?
Its IC50 is 3.2 nM.

How did the IC50 turn out when `COCc1cnc2c(-c3nc4c(F)cccc4s3)cc(C)cc2n1` [Example 273, 4-fluoro-2-(2-(methoxymethyl)-7-methylquinoxalin-5-yl)benzo[d]thiazole] was run?
The IC50 was 4.3 nM.

For `COCc1cnc2c(-c3nc4ccc(Cl)cc4s3)cc(C)cc2n1` [Example 274, 6-chloro-2-(2-(methoxymethyl)-7-methylquinoxalin-5-yl)benzo[d]thiazole], which IC50 is on record?
The IC50 was 5.7 nM.

`COCc1cnc2c(-c3nc4c(Cl)cc(Cl)cc4s3)cc(C)cc2n1` [Example 275, 4,6-dichloro-2-(2-(methoxymethyl)-7-methylquinoxalin-5-yl)benzo[d]thiazole] was tested. Which IC50 did it give?
The IC50 was 0.9 nM.

Which IC50 does the source give for `COCc1cnc2c(-c3nc4cc(C)c(OC)cc4s3)cc(C)cc2n1` [Example 276, 6-methoxy-2-(2-(methoxymethyl)-7-methylquinoxalin-5-yl)-5-methylbenzo[d]thiazole] here?
The IC50 was 1.2 nM.

How did the IC50 turn out when `COCc1cnc2c(-c3nc4cc(F)c(OC)cc4s3)cc(C)cc2n1` [Example 277, 5-fluoro-6-methoxy-2-(2-(methoxymethyl)-7-methylquinoxalin-5-yl)benzo[d]thiazole] was run?
Its IC50 is 9 nM.
